What all share (assay type): cell-based
Data set [1] relates to Trichophyton asteroides. Kind of data set: Minimum inhibitory concentration against Trichophyton asteroides, test tube experiment in Sabouraud's dextrose broth. The text has this:
In the test, Sabouraud's dextrose broth* was used.

In data set [2] the test system is C. albicans KE-2. Kind of data set: Inhibition test against pseudomycelium formation of Candida albicans. The following applies: minimum effective concentration preventing typical pseudomycelium formation; EMEM with 20 % calf serum, 1 x 10⁶ yeast cells per milliliter, 18 hr. at 37 °C; read-out: Inhibitory Concentration of Pseudomyselium Formation. As for the experimental part: Inhibition test against pseudomycelium formation of Candida albicans.
C. albicans KE-2 was inoculated to EMEM (Nissan 2 made by Nissui Seiyaku, Ltd.) supplemented with 20 % calf serum so that its final inoculum might be 1 x 10⁶ yeast cells per milliliter. The test compounds were added thereon in two fold dilution series. After inocubation for 18 hr. at 37 °C, the fungal growth in each drug concentration was smeared and fixed on a slide glass, and its morphological feature on the presence or absence of the pseudomycelium formation was examined by a microscope following Giemsa staining. Minimum effective concentration was defined as the lowest concentration of the compound which prevented typical pseudomycelium formation.

In data set [3] the test system is influenza virus Ao/WSN (H₁N₁). Put plainly: Antiviral activity: Plaque Reduction Test in MDCK cells. Particulars: unidentified influenza virus, read-out: ED 50 (1) Plaque Reduction Test. (Plaque reduction counts the foci of infection that form in a cell layer.)
Data set [4] relates to influenza virus Ao/WSN (H₁N₁). Put plainly: microbe, parasite or virus in culture. The following applies: unidentified influenza virus, MDCK, 24 h, read-out: ED 50 (2) Virus Yield Test.
A short description of data set [5]: in vitro. Particulars: dog, mdck. How it is done:
(3) Colony Formation Test The action to the host cell was examined by the following method: MDCK cells (coming from dog's kidney) were adjusted to a concentration of 200 cells/ml with a growth medium and poured into each pore of Lindbrow's 12 pores microplate 1 ml by 1 ml. The test compound diluted with a growth medium was added to the pores 1 ml by 1 ml, and the whole was cultivated in a cultivating apparatus filled with 5% carbon dioxide gas at 37°C for 7 days. After dyeing with 1% crystal violet dyeing solution for 15 min, the number of cell colonies was counted. The concentration of the test compound which inhibited 50% the growth of cell colonies in comparison with obtained without using the test compound was evaluated as TD₅₀ value for judging the toxicity against cell.

Values after ≈ are worked out from the molar mass of the structure shown.

As usually defined, the MIC is the lowest concentration that inhibits growth of the organism. For `C=C(c1c(O)cccc1OCCCC)n1ccnc1` [Compound I-4], in data set [1], the minimal inhibitory concentration (MIC) was 0.1 µg/mL (≈ 0.387 µM).

For the compound `CCC(CC)=C(c1cc(Cl)ccc1O)n1ccnc1` [Compound I-5], the MIC in data set [1] was 0.1 µg/mL (≈ 0.361 µM). For the same compound, the minimal effective concentration in data set [2] was 0.63 µg/mL.

On to `CCC(CC)=C(c1cc(Cl)ccc1O)n1cncn1` [Compound I-6], for which the minimum inhibitory concentration (MIC) in data set [1] was 0.1 µg/mL (≈ 0.36 µM).

`Oc1ccc(Cl)cc1/C(=C/c1ccc(Cl)cc1Cl)n1ccnc1` [Compound I-9] displayed an MIC in data set [1] of 0.1 µg/mL (≈ 0.273 µM).

In data set [1], `Oc1ccc(Cl)cc1C(=C1CCCCC1)n1ccnc1` [Compound I-22] showed an MIC of 0.1 µg/mL (≈ 0.346 µM).

In data set [1], `C=C(c1cc(-c2ccccc2)ccc1OC)n1ccnc1` [Compound I-49] had an MIC of 0.1 µg/mL (≈ 0.362 µM).

In turn, `CCC(CC)=C(c1cc(Cl)ccc1OC)n1ccnc1` [Compound I-50] registered an MIC in data set [1] of 0.1 µg/mL (≈ 0.344 µM). Also, in data set [2], the minimal effective concentration came out at 0.31 µg/mL.

Turning to `CCCCOc1ccc(Cl)cc1C(=C(CC)CC)n1ccnc1` [Compound I-51], in data set [2], the minimal effective concentration was determined as 0.31 µg/mL.

`CCC(CC)=C(c1cc(Cl)ccc1OC(C)C)n1ccnc1` [Compound I-52]: in data set [1], inhibition of growth (MIC) required 0.1 µg/mL (≈ 0.314 µM). The minimal effective concentration in data set [2] came out at 0.08 µg/mL.

Regarding `COc1ccc(Cl)cc1C(=C1CCCCC1)n1ccnc1` [Compound I-56], the MIC in data set [1] was 0.1 µg/mL (≈ 0.33 µM).

For orientation: CC50 means the concentration that lowers cell viability or growth by half. High values mean lower toxicity to the cells, low ones greater toxicity to the cells. For `COc1ccc(Cl)cc1C(=C1CCCCC1)n1cncn1` [Compound I-57], the EC50 is 48 µg/mL (≈ 158 µM) in data set [3] and 30 µg/mL (≈ 98.8 µM) in data set [4]. For the same compound, the cytotoxic concentration (CC50) at 168 h in data set [5] was 70 µg/mL (≈ 230 µM).

Regarding `CC(C)Oc1ccc(Cl)cc1C(=C1CCCCC1)n1cncn1` [Compound I-58], the minimal effective concentration in data set [2] was 0.16 µg/mL.

`CC(C)Oc1ccc(Cl)cc1C(=C1CCCCC1)n1ccnc1` [Compound I-66] yielded an MIC in data set [1] of 0.1 µg/mL (≈ 0.302 µM). The minimal effective concentration in data set [2] is 0.08 µg/mL.

Compound `C=C(c1cc(Cl)ccc1OCC(=O)c1ccc(Cl)cc1)n1ccnc1` [Compound I-107] yielded an MIC in data set [1] of 0.1 µg/mL (≈ 0.268 µM).

The values are drawn from patent EP0227100A2, “N-Vinylimidazoles and -triazoles and pharmaceutical compositions containing them” (SHIONOGI SEIYAKU KABUSHIKI KAISHA, priority 1985, dated 1987).
